Experimental data from PubChem BioAssay (NCI).
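GI50 = concentration required for 50% inhibition of growth. TGI is the concentration that stops growth completely.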

Key:
Test in all cases: NCI-60 cell line screen, 384-well format
MCF7 breast = tested on: MCF7 breast
CAKI-1 renal = tested on: CAKI-1 renal
K-562 leukemia = tested on: K-562 leukemia
HT29 colon = tested on: HT29 colon
HL-60(TB) leukemia = tested on: HL-60(TB) leukemia
ACHN renal = tested on: ACHN renal
CCRF-CEM leukemia = tested on: CCRF-CEM leukemia
TK-10 renal = tested on: TK-10 renal
SK-MEL-2 melanoma = tested on: SK-MEL-2 melanoma
OVCAR-8 ovarian = tested on: OVCAR-8 ovarian
NCI-H23 lung = tested on: NCI-H23 lung
A549 NSCLC = tested on: A549 NSCLC
KM12 colon = tested on: KM12 colon

C/C=C1\NC(=O)[C@H]2CSSCCC=C[C@H](CC(=O)N[C@H](C(C)C)C(=O)N2)OC(=O)[C@H](C(C)C)NC1=O
GI50 (MCF7 breast): < 10 nM | TGI (MCF7 breast): < 10 nM | GI50 (CAKI-1 renal): < 10 nM | TGI (CAKI-1 renal): < 10 nM | GI50 (K-562 leukemia): < 10 nM | TGI (K-562 leukemia): < 10 nM | GI50 (HT29 colon): < 10 nM | TGI (HT29 colon): < 10 nM | GI50 (HL-60(TB) leukemia): < 10 nM | TGI (HL-60(TB) leukemia): < 10 nM | GI50 (ACHN renal): < 11.9 nM | TGI (ACHN renal): 23.3 nM | GI50 (CCRF-CEM leukemia): < 10 nM | TGI (CCRF-CEM leukemia): < 10 nM | GI50 (TK-10 renal): < 10 nM | TGI (TK-10 renal): < 18.1 nM | GI50 (SK-MEL-2 melanoma): < 10 nM | TGI (SK-MEL-2 melanoma): < 10 nM | GI50 (OVCAR-8 ovarian): < 10 nM | TGI (OVCAR-8 ovarian): < 10 nM | GI50 (NCI-H23 lung): < 10 nM | TGI (NCI-H23 lung): < 10 nM | GI50 (A549 NSCLC): < 10 nM | TGI (A549 NSCLC): < 10 nM | GI50 (KM12 colon): < 10 nM | TGI (KM12 colon): < 10 nM
